This is an account of results in article PMC5316807, “Protective role of fructokinase blockade in the pathogenesis of acute kidney injury in mice” (Nature Communications, 2017).

This assay concerns the target T1, fructokinase (ketohexokinase, KHK) (Homo sapiens, UniProt P50053).
T1 sequence (P50053 1-298): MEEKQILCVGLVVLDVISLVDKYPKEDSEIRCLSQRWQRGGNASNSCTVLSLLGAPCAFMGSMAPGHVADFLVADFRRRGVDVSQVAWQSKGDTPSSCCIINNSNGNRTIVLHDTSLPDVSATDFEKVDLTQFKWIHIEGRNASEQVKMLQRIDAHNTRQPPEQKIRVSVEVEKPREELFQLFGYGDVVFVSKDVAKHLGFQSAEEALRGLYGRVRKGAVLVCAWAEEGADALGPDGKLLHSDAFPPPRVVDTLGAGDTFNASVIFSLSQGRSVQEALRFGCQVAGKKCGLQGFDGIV
The assay can be described thus: fructose-dependent ATP depletion assay in HK-2 (human proximal tubule) cell lysates, KHK-deficient HK-2 cells as background control. It is filed as biochemical.

On to `O=c1cc(-c2ccc(O)c(O)c2)oc2cc(O)cc(O)c12` [luteolin], for which half-maximal inhibition (IC50) required 11.2 µM.
